According to US12104178B2, “DHFR tunable protein regulation” (Obsidian Therapeutics, Inc., priority 2017, dated 2024):

Columns and labels:
human donor T cells [1] = assay: Shield-1 concentration and time dependent IL12 p40 in human T cells (Tables 94-96); assay type: cell-based; parameters: IL12 levels in T cells (IL12 p40, MSD): unit not given beside the values; details: for EC50: IL12 p40 from OT-IL12-026 T cells; for IL12 levels in T cells (IL12 p40, MSD): OT-IL12-026 T cells, 24 hours
Procedure: On day 1, cells were transduced with lentivirus for construct OT-IL12-026 at MOIs of 40, 13.3 or 4.4. […] Cells were then plated at 100,000 per well on U-bottom 96-well plate. On day 14, cells were treated for 24 hours with varying concentrations of Shield-1 or vehicle control. On day 15, the supernatant was harvested and IL12 p40 levels were measured by MSD assay. In the Table 94, MOI stands for multiplicity of infection.
A time course experiment was also performed using Shield-1 at a dose of 1 μM. T cells transduced with OT-IL12-020, OT-IL12-026 or empty vector were treated with Shield-1 or vehicle control for 4, 8, 16 and 24 hours. IL12 p40 levels were measured using MSD assay. The stabilization ratio was measured as the ratio of expression of IL12 in the presence of the stimulus to the expression in the absence of the stimulus.

human donor T cells [2] = assay: as above; assay type: cell-based; details: 24 h
HCT-116 = assay: DD regulated IL2, IL2 ELISA with Shield-1 dose; assay type: cell-based, human; details: read-out: EC50 of Shield-1, IL2 ELISA (FIG. 58); HCT-116 transduced with OT-IL2-001
Excerpt: OT-IL2-001 (FKBP) was transduced into human colorectal carcinoma line, HCT-116.

CC[C@H](C(=O)N1CCCC[C@H]1C(=O)O[C@H](CCc1ccc(OC)c(OC)c1)c1cccc(OCCN2CCOCC2)c1)c1cc(OC)c(OC)c(OC)c1 [Shield-1]
EC50 (human donor T cells [1]; MOI 4.4): 84 nM
EC50 (human donor T cells [1]; MOI 13.3): 94 nM
EC50 (human donor T cells [1]; MOI 40): 130 nM
IL12 levels in T cells (IL12 p40, MSD) (human donor T cells [1]; MOI = 4.4, Shield-1 0.1 nM): 49.44
IL12 levels in T cells (IL12 p40, MSD) (human donor T cells [1]; MOI = 4.4, Shield-1 1 nM): 50.44
IL12 levels in T cells (IL12 p40, MSD) (human donor T cells [1]; MOI = 4.4, Shield-1 5 nM): 50.44
IL12 levels in T cells (IL12 p40, MSD) (human donor T cells [1]; MOI = 4.4, Shield-1 10 nM): 178.18
IL12 levels in T cells (IL12 p40, MSD) (human donor T cells [1]; MOI = 4.4, Shield-1 50 nM): 357.11
IL12 levels in T cells (IL12 p40, MSD) (human donor T cells [1]; MOI = 4.4, Shield-1 100 nM): 710.56
IL12 levels in T cells (IL12 p40, MSD) (human donor T cells [1]; MOI = 4.4, Shield-1 500 nM): 1284.95
IL12 levels in T cells (IL12 p40, MSD) (human donor T cells [1]; MOI = 4.4, Shield-1 1000 nM): 1152.28
IL12 levels in T cells (IL12 p40, MSD) (human donor T cells [1]; MOI = 4.4, Shield-1 2000 nM): 1071.54
IL12 levels in T cells (IL12 p40, MSD) (human donor T cells [1]; MOI = 13.3, Shield-1 0.1 nM): 48.10
IL12 levels in T cells (IL12 p40, MSD) (human donor T cells [1]; MOI = 13.3, Shield-1 1 nM): 48.61
IL12 levels in T cells (IL12 p40, MSD) (human donor T cells [1]; MOI = 13.3, Shield-1 5 nM): 49.54
IL12 levels in T cells (IL12 p40, MSD) (human donor T cells [1]; MOI = 13.3, Shield-1 10 nM): 220.08
IL12 levels in T cells (IL12 p40, MSD) (human donor T cells [1]; MOI = 13.3, Shield-1 50 nM): 420.72
IL12 levels in T cells (IL12 p40, MSD) (human donor T cells [1]; MOI = 13.3, Shield-1 100 nM): 972.56
IL12 levels in T cells (IL12 p40, MSD) (human donor T cells [1]; MOI = 13.3, Shield-1 500 nM): 1307.70
IL12 levels in T cells (IL12 p40, MSD) (human donor T cells [1]; MOI = 13.3, Shield-1 1000 nM): 1559.43
IL12 levels in T cells (IL12 p40, MSD) (human donor T cells [1]; MOI = 13.3, Shield-1 2000 nM): 1577.99
IL12 levels in T cells (IL12 p40, MSD) (human donor T cells [1]; MOI = 40, Shield-1 0.1 nM): 88.30
IL12 levels in T cells (IL12 p40, MSD) (human donor T cells [1]; MOI = 40, Shield-1 1 nM): 80.07
IL12 levels in T cells (IL12 p40, MSD) (human donor T cells [1]; MOI = 40, Shield-1 5 nM): 88.83
IL12 levels in T cells (IL12 p40, MSD) (human donor T cells [1]; MOI = 40, Shield-1 10 nM): 374.90
IL12 levels in T cells (IL12 p40, MSD) (human donor T cells [1]; MOI = 40, Shield-1 50 nM): 608.85
IL12 levels in T cells (IL12 p40, MSD) (human donor T cells [1]; MOI = 40, Shield-1 100 nM): 1293.01
IL12 levels in T cells (IL12 p40, MSD) (human donor T cells [1]; MOI = 40, Shield-1 500 nM): 1861.36
IL12 levels in T cells (IL12 p40, MSD) (human donor T cells [1]; MOI = 40, Shield-1 1000 nM): 2346.15
IL12 levels in T cells (IL12 p40, MSD) (human donor T cells [1]; MOI = 40, Shield-1 2000 nM): 2330.88
Shield-1 concentration at which viability was reduced (human donor T cells [2]): greater than 5 μM
EC50 (HCT-116): 50 nM
